{"source": "patent US20050153930A1", "about": "“Inhibition of a novel calcium injury current that forms in nuerons during injury prevents neuronal cell death” (Robert J. DeLorenzo, priority 2000, published 2005)", "format_in_all_cases": "cell-based, rat", "key": {"[1]": {"system": "Injury Induced Calcium Channel (IICC)", "assay": "Voltage clamp current/voltage relationship of the injury induced calcium current"}, "[2]": {"system": "hippocampal neurons in culture", "assay": "Extended neuronal depolarization (END), membrane potential recording after excitotoxic glutamate exposure"}, "[3]": {"system": "hippocampal neurons in culture", "assay": "Neuronal cell death / survival after excitotoxic glutamate, aging or chronic glutamate injury", "conditions": "for neuronal cell death produced by excitotoxic glutamate exposure: acute excitotoxic injury, treatment after injury"}, "[4]": {"system": "hippocampal neurons in culture", "assay": "Intracellular calcium measurement (Indo-1 / Fura-FF) after excitotoxic glutamate exposure", "conditions": "for prolonged elevation of intra cellular calcium / entry of extra cellular calcium following injury: after excitotoxic glutamate exposure"}, "[5]": {"conditions": "neurons in END after excitotoxic glutamate, voltage steps -90 to +60 mV"}, "[6]": {"conditions": "applied in wash after 10 min 100 uM glutamate + 10 uM glycine"}, "[7]": {"conditions": "administered alone or in combination (without gadolinium) after the 10 minute glutamate exposure"}, "[8]": {"conditions": "chronic exposure during numerous minor chronic glutamate injuries"}, "[9]": {"conditions": "chronically administered during aging of neurons"}}, "note": "Entries after “also recorded” stand apart in the source; their conditions may differ. Where a name gives a salt, the structure may show the parent alone. Read-outs that look alike come from different tables or passages of the source."}
{"compound": "N[C@@H](CCCP(=O)(O)O)C(=O)O", "note": "[APV, reference compound]", "values": [{"measurement": "effect on IICC current (calcium injury current)", "setting": "[1]; [5]", "result": "None of the glutamate receptor antagonists had any effect"}]}
{"compound": "CC(C)COCC(CN(Cc1ccccc1)c1ccccc1)N1CCCC1", "note": "(stereo not shown) [Bepridil, reference compound]", "values": [{"measurement": "effect on IICC current (calcium injury current)", "setting": "[1]", "result": "had no effect on blocking the observed calcium injury current"}, {"measurement": "reversal of END", "setting": "[2]; [6]", "result": "did not block END; also recorded: had no effect in reversing END"}]}
{"compound": "N#Cc1cc2[nH]c(=O)c(=O)[nH]c2cc1[N+](=O)[O-]", "note": "[CNQX, reference compound]", "values": [{"measurement": "effect on IICC current (calcium injury current)", "setting": "[1]; [5]", "result": "None of the glutamate receptor antagonists had any effect"}]}
{"compound": "NS(=O)(=O)c1cccc2c1c([N+](=O)[O-])cc1nc(O)c(O)nc12", "note": "[NBQX, reference compound]", "values": [{"measurement": "effect on IICC current (calcium injury current)", "setting": "[1]; [5]", "result": "None of the glutamate receptor antagonists had any effect"}]}
{"compound": "COc1ccc(CCCOC(Cn2ccnc2)c2ccc(OC)cc2)cc1", "note": "(stereo not shown) [SKF-96365, reference compound]", "values": [{"measurement": "reversal of END", "setting": "[2]; [6]", "result": "had no effect on reversing END"}]}
{"compound": "O=C(O)CCCCC1CCSS1", "note": "(stereo not drawn) [alpha-lipoate, 1,2-dithiolane-3-pentanoic acid]", "values": [{"measurement": "neuronal survival", "setting": "[3]; [7]", "result": "had no significant effect on neuronal survival"}]}
{"compound": "CCCCCCCCCCCCCCCC(=O)OC[C@H](O)[C@H]1OC(=O)C(O)=C1O", "note": "[ascorbyl palmitate]", "values": [{"measurement": "neuronal survival", "setting": "[3]; [7]", "result": "had no significant effect on neuronal survival"}]}
{"compound": "CC1=C(/C=C/C(C)=C/C=C/C(C)=C/C=C/C=C(C)/C=C/C=C(C)/C=C/C2=C(C)CCCC2(C)C)C(C)(C)CCC1", "note": "[beta-carotene]", "values": [{"measurement": "neuronal survival", "setting": "[3]; [7]", "result": "had no significant effect on neuronal survival"}]}
{"compound": "[Cd]", "note": "[cadmium, reference compound]", "values": [{"measurement": "effect on IICC current (calcium injury current)", "setting": "[1]", "result": "None of these calcium channel blockers had any effect"}]}
{"compound": "O=c1ccc2ccccc2o1", "note": "[coumarin]", "values": [{"measurement": "neuronal survival", "setting": "[3]; [7]", "result": "had no significant effect on neuronal survival"}]}
{"compound": "[Cl][Gd]([Cl])[Cl]", "note": "[gadolinium, gadolinium chloride]", "values": [{"measurement": "formation of IICCs", "setting": "[1]; [8]", "result": "blocked the formation of IICCs"}, {"measurement": "development of IICCs", "setting": "[1]; given chronically to aging neurons", "result": "blocked the development of IICCs"}, {"measurement": "effect on IICC current (calcium injury current)", "setting": "[1]; [5]", "result": "inhibited the IICC current"}, {"measurement": "effect on IICC current (calcium injury current)", "setting": "[1]; neurons in END after excitotoxic glutamate, voltage steps -90 to +60 mV, listed as Gadolinium", "result": "effectively inhibited the IICC current"}, {"measurement": "effect on IICC current (calcium injury current)", "setting": "[1]; neurons in END after excitotoxic glutamate, voltage steps -90 to +60 mV, listed as gadolinium chloride", "result": "returns the neuron from END to baseline (control) conditions"}, {"measurement": "prolonged elevation of intra cellular calcium / entry of extra cellular calcium following injury", "setting": "[4]", "result": "able to block the extra cellular calcium entering from the bathing solution; also recorded: blocked by gadolinium"}, {"measurement": "prolonged elevation of intra cellular calcium / entry of extra cellular calcium following injury", "setting": "[4]; listed as Gadolinium", "result": "effective in reversing the prolonged elevation of intra cellular calcium"}, {"measurement": "calcium entry and accumulation", "setting": "[4]; chronic administration, chronic injury model", "result": "blocked calcium entry and accumulation"}, {"measurement": "calcium entry", "setting": "[4]; [9]", "result": "blocked calcium entry"}, {"measurement": "time for intra cellular calcium to return to baseline levels", "setting": "[4]; gadolinium in wash after excitotoxic glutamate, controls sustained at approximately 1-2 uM (indo-1)", "result": "30 to 40", "unit": "min"}, {"measurement": "reversal of END", "setting": "[2]; [6]", "result": "blocked by gadolinium; also recorded: effective in reversing END"}, {"measurement": "reversal of END", "setting": "[2]; applied in wash after 10 min 100 uM glutamate + 10 uM glycine, listed as Gadolinium", "result": "as effective as zero calcium in reversing END; also recorded: able to reverse END as well as zero calcium"}, {"measurement": "development of END", "setting": "[2]; chronic administration, chronic injury model (multiple minor glutamate exposures)", "result": "blocked calcium entry and accumulation and the development of END"}, {"measurement": "development of END", "setting": "[2]; [9]", "result": "blocked calcium entry and the development of END"}, {"measurement": "time for END to return to baseline levels", "setting": "[2]; gadolinium in wash after excitotoxic glutamate, controls manifested END for greater than one hour", "result": "30 to 40", "unit": "min"}, {"measurement": "neuronal cell death produced by excitotoxic glutamate exposure", "setting": "[3]", "result": "effective in reversing"}, {"measurement": "neuronal cell death produced by excitotoxic glutamate exposure", "setting": "[3]; listed as Gadolinium", "result": "prevention of delayed neuronal cell death"}, {"measurement": "life span of neurons / cell death associated with aging", "setting": "[3]; administered chronically to neurons as they aged", "result": "effective in significantly increasing the life span of the neurons; also recorded: prolonged the life of the neurons"}, {"measurement": "neuronal cell death from chronic injury", "setting": "[3]; [8]", "result": "prevented the gradual production of neuronal cell death"}, {"measurement": "neuronal cell death", "setting": "[3]; excitotoxic injury in the presence of gadolinium", "result": "did not die"}]}
{"compound": "C[C@H]1C[C@@H]2[C@H]([C@@H](O)C[C@@]3(C)[C@H]2CC[C@]3(O)C(=O)CO)[C@@]2(C)C=CC(=O)C=C12", "note": "[methlyprednisolone]", "values": [{"measurement": "neuronal survival", "setting": "[3]; [7]", "result": "had no significant effect on neuronal survival"}]}
{"compound": "CCN(CC)Cc1nccn1-c1ccc([N+](=O)[O-])cc1C(=O)c1ccccc1Cl", "note": "[nizofenone]", "values": [{"measurement": "neuronal survival", "setting": "[3]; [7]", "result": "had no significant effect on neuronal survival"}]}
{"compound": "C[C@@H]1C[C@H]2[C@@H]3CCC4=CC(=O)C=C[C@]4(C)C3=CC[C@]2(C)[C@H]1C(=O)CN1CCN(c2cc(N3CCCC3)nc(N3CCCC3)n2)CC1", "note": "[tirilazad mesylate]", "values": [{"measurement": "neuronal survival", "setting": "[3]; [7]", "result": "had no significant effect on neuronal survival"}]}
{"compound": "O=C1O[C@H]([C@@H](O)CO)C(O)=C1O", "note": "[vitamin C, ascorbic acid]", "values": [{"measurement": "neuronal survival", "setting": "[3]", "result": "had no significant effect on neuronal survival"}]}
{"compound": "Cc1c(C)c2c(c(C)c1O)CC[C@@](C)(CCC[C@H](C)CCC[C@H](C)CCCC(C)C)O2", "note": "[vitamin E, alpha-tocopherol]", "values": [{"measurement": "neuronal survival", "setting": "[3]; [7]", "result": "had no significant effect on neuronal survival"}]}
{"compound": "[Cl-].[Cl-].[Zn+2]", "note": "[zinc chloride, reference compound]", "values": [{"measurement": "reversal of END", "setting": "[2]; 5 uM, after excitotoxic glutamate exposure", "result": "did not prevent END"}, {"measurement": "reversal of END", "setting": "[2]; 5 uM, after excitotoxic glutamate exposure, listed as zinc", "result": "had no effect in reversing END"}]}
{"compound": "dilauryl ascorbate", "values": [{"measurement": "neuronal survival", "setting": "[3]", "result": "had no significant effect on neuronal survival"}]}
{"compound": "heparin", "values": [{"measurement": "neuronal survival", "setting": "[3]; [7]", "result": "had no significant effect on neuronal survival"}]}
